Data from patent US7312031B1, “Alpha-complementation viral fusion assay” (The Salk Institute for Biological Studies, priority 2002, dated 2007).

Key:
[1] = system: fusion of 293T.CD4.Ω with 293T/SF33; experiment: alpha-complementation fusion assay, 293T.CD4.Ω with 293T/SF33; type: cell-based, human; settings: FIG. 5 and 6; SF33 Env (CXCR4-specific); 293T.CD4.Ω stable line
Protocol: Remove the plates from the water bath, spin 4000 rpm (Eppendorf tabletop centrifuge) for 1 minute to firmly pellet cells, aspirate medium, and add 100 μl of Galacto-Star lysis buffer (Perkin-Elmer). Mix well and incubate at room temperature for 5 minutes. Spin lysates 5 minutes at 4000 rpm and transfer 10 μl to a black 96-well plate (Costar). Add 100 μl of Galacto-Star substrate using a multi-channel pipettor. After 60 minutes, read β-gal activity in plates in a Packard TopCount luminometer for 15 s/well.
Transfect 293 cells with expression vector for HIV envelope protein, B-gal-α and HIV-1 Rev. Vectors used express CCR5-specific Envs (JFRL, ADA) or CXCR4-specific Envs (SF33 or JC2) driven by the cytomegalovirus promoter. Transfect the cells by lipofection or calcium phosphate standard methods.
Harvest 293-CD4.CCR5.omega cells with PBS/EDTA and count.
Prepare a microtiter plate by adding 2.5×10^5 293-CD4.CCR5.omega cells to each well with a multi-channel pipettor or robot in a volume of 50 μl of medium. Add inhibitors at different concentrations to each of the wells, in duplicate. […]

[2] = system: fusion of 293T.CD4.Ω/CCR5 with 293T/ADA; experiment: alpha-complementation fusion assay, 293T.CD4.Ω/CCR5 with 293T/ADA; type: cell-based, human; settings: FIG. 7-9, ADA Env (CCR5-specific)
Protocol: FIG. 7 depicts the fusion of 293T.CD4.Ω/CCR5 with 293T/ADA in the presence of TAK-779.
293T (ATCC cat #CRL-1573) or HeLa (ATCC cat #CCL-2) cells (2.5×10^6) were seeded in 10 cm plates 24 hours prior to transfection. The next morning, cells were transfected with 21 μg of DNA, 7 μg pSCTZ-alpha-N85, 7 μg pRSV-Rev (Hope et al., Proc. Nat'l. Acad. Sci. U.S.A. 87: 7787-91 (1990)) and 7 μg of envelope expression vector (pSV-ADA, pSV-JRFL (Deng et al., Nature 381: 661-666 (1996)), or pCAGGS-SF33 (York-Higgins et al., J. Virol. 64: 4016-4020 (1990)). […]
Remove the plates from the water bath, spin 4000 rpm (Eppendorf tabletop centrifuge) for 1 minute to firmly pellet cells, aspirate medium, and add 100 μl of Galacto-Star lysis buffer (Perkin-Elmer). […] After 60 minutes, read β-gal activity in plates in a Packard TopCount luminometer for 15 s/well. […]
Two days later, remove the transfected cells from plates by incubating with phosphate-buffered saline containing 5 mM EDTA. The cells are then counted on hemocytometer. […]
After four hours, read β-gal activity as in Example 1.

Compound	inhibition of fusion reaction [1]	inhibition of fusion reaction [2]
c1cc(CN2CCCNCCNCCCNCC2)ccc1CN1CCCNCCNCCCNCC1 [AMD3100]	inhibits the fusion reaction in a concentration-dependent manner	–
Cc1ccc(-c2ccc3c(c2)C=C(C(=O)Nc2ccc(C[N+](C)(C)C4CCOCC4)cc2)CCC3)cc1.[Cl-] [TAK-779]	–	inhibits the fusion reaction in a concentration-dependent manner
